Reference: the supplement of paper PMC8671470
± gives the standard deviation of the averaged measurements.

Tests used:
Conditions in all cases: 72 h
HL-60 [1] = assay: cell viability (% survival relative to DMSO control); higher = less cytotoxic
How it was run: (§1)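 Area under the curve, where listed, was derived from four-parameter log-logistic fits with drc and PharmacoGx. These fits used CellTiter-Glo viability from HL-60 cells in RPMI 1640 with 10% FBS, normalised to DMSO wells and wells holding 10 μM proteasome inhibitor. The full library was rescreened on 384-well plates in duplicate at five tenfold concentrations, 1–10,000 nM, with DMSO or 100 nM of one of three metabolic inhibitors, for 72 h at 37 °C, 5% CO2.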

[2] = system: myeloid leukemia patient primary cells Pat.10; assay: cell viability (% survival relative to DMSO control); higher = less cytotoxic
How it was run: (§2)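 Thawed, Ficoll-purified mononuclear cells from AML or CML patients in RPMI 1640 with 10% FBS were seeded at 10,000 cells/well on 384-well plates pre-printed with 70 compounds at five tenfold concentrations, 1–10,000 nM, in duplicate, for 72 h. Viability was read by CellTiter-Glo and normalised to DMSO and 10 μM proteasome-inhibitor wells. Where given, area under the curve came from four-parameter log-logistic fits (drc, PharmacoGx R packages).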

[3] = system: myeloid leukemia patient primary cells Pat.11; assay: as above
How it was run: as §2

[4] = system: myeloid leukemia patient primary cells Pat.12; assay: as above
How it was run: as §2

[5] = system: myeloid leukemia patient primary cells Pat.13; assay: as above
How it was run: as §2

[6] = system: myeloid leukemia patient primary cells Pat.14; assay: as above
How it was run: as §2

[7] = system: myeloid leukemia patient primary cells Pat.15; assay: as above
How it was run: as §2

[8] = system: myeloid leukemia patient primary cells Pat.1; assay: as above
How it was run: as §2

[9] = system: myeloid leukemia patient primary cells Pat.2; assay: as above
How it was run: as §2

[10] = system: myeloid leukemia patient primary cells Pat.3; assay: as above
How it was run: as §2

[11] = system: myeloid leukemia patient primary cells Pat.4; assay: as above
How it was run: as §2

[12] = system: myeloid leukemia patient primary cells Pat.5; assay: as above
How it was run: as §2

[13] = system: myeloid leukemia patient primary cells Pat.6; assay: as above
How it was run: as §2

[14] = system: myeloid leukemia patient primary cells Pat.7; assay: as above
How it was run: as §2

[15] = system: myeloid leukemia patient primary cells Pat.8; assay: as above
How it was run: as §2

[16] = system: myeloid leukemia patient primary cells Pat.9; assay: as above
How it was run: as §2

HL-60 [17] = assay: area under dose-response curve (viability, 1 nM-10 uM) (fraction (0-1)); higher = more sensitive
How it was run: as §1

CC(C)(C)c1ccc(S(=O)(=O)NCc2ccc(C(=O)Nc3cccnc3)cc2)cc1 [STF-31]
cell viability [%], HL-60 [1]
Conditions | 0.001 µM | 0.01 µM | 0.1 µM | 1 µM | 10 µM
co-treatment: AZD3965 100 nM | 104 ± 5.3 | 95.82 ± 0.71 | 94.3 ± 5.3 | 20.9 ± 0.83 | 2.06 ± 0.56
co-treatment: DMSO vehicle | 104 ± 1.7 | 94.1 ± 1.3 | 108 ± 3.8 | 10.1 ± 3.2 | 4.63 ± 2.2
co-treatment: GSK2194069 100 nM | 101 ± 1.4 | 98.62 ± 0.24 | 99.7 ± 7 | 6.72 ± 0.56 | 2.51 ± 0.88
co-treatment: pictilisib 100 nM | 100 ± 2.9 | 93.2 ± 6.9 | 105 ± 26 | 18 ± 18 | 3.08 ± 1

Conditions | area under dose-response curve, co-treatment: AZD3965 100 nM | area under dose-response curve, co-treatment: DMSO vehicle | area under dose-response curve, co-treatment: GSK2194069 100 nM | area under dose-response curve, co-treatment: pictilisib 100 nM | cell viability, 1 nM [%] | cell viability, 10 nM [%] | cell viability, 100 nM [%] | cell viability, 1000 nM [%] | cell viability, 10000 nM [%]
HL-60 [17] | 0.328 | 0.342 | 0.362 | 0.324 | – | – | – | – | –
[2] | – | – | – | – | 56.6 | 35 | 64.9 | < 0 | 4.94
[3] | – | – | – | – | 95.5 | 92.3 | 99.3 | 2.57 | 1.37
[4] | – | – | – | – | 96.2 | 96.2 | 92.7 | 7.74 | 4.47
[5] | – | – | – | – | 94.8 | 87.8 | 87.7 | 8.95 | 9.54
[6] | – | – | – | – | 74.9 | 62.1 | 9.36 | 1.38 | < 0
[7] | – | – | – | – | 87.8 | 90.9 | 89.8 | 2.3 | 1.11
[8] | – | – | – | – | 95.2 | 82 | > 100 | 31.6 | 16.5
[9] | – | – | – | – | 98.4 | 96.8 | 84.9 | 13.2 | 11.4
[10] | – | – | – | – | 90.6 | 45.5 | 6.65 | 2.19 | 1.78
[11] | – | – | – | – | 84.9 | 83.8 | 18 | 1.84 | 1.54
[12] | – | – | – | – | 78.8 | 6.66 | 0.912 | 0.265 | 2.27
[13] | – | – | – | – | 98 | 85.7 | 71.1 | 21.7 | 28.8
[14] | – | – | – | – | 80.1 | 62.7 | 7.78 | < 0 | < 0
[15] | – | – | – | – | 97.5 | 87 | 63 | 6.59 | 9.06
[16] | – | – | – | – | 72.4 | 28.7 | 7.17 | < 0 | 0.773

CO[C@H]1C[C@@H]2CC[C@@H](C)[C@@](O)(O2)C(=O)C(=O)N2CCCC[C@H]2C(=O)O[C@H]([C@H](C)C[C@@H]2CC[C@@H](OC(=O)C(C)(CO)CO)[C@H](OC)C2)CC(=O)[C@H](C)/C=C(\C)[C@@H](O)[C@@H](OC)C(=O)[C@H](C)C[C@H](C)/C=C/C=C/C=C/1C [Temsirolimus]
cell viability [%], HL-60 [1]
Conditions | 0.001 µM | 0.01 µM | 0.1 µM | 1 µM | 10 µM
co-treatment: AZD3965 100 nM | 99.9 ± 2.7 | 97.186 ± 0.021 | 101 ± 1.3 | 92.3 ± 4.5 | 86.7 ± 11
co-treatment: DMSO vehicle | 101 ± 5.4 | 96.3 ± 2.3 | 97.65 ± 0.65 | 90.3 ± 4 | 100 ± 8.2
co-treatment: GSK2194069 100 nM | 92.3 ± 9.2 | 87.52 ± 0.64 | 103.1 ± 0.41 | 83.261 ± 0.04 | 96.5 ± 5.2
co-treatment: pictilisib 100 nM | 94.1 ± 13 | 81 ± 9.1 | 99.1 ± 7.6 | 81.02 ± 0.76 | 91.4 ± 5.5

Conditions | area under dose-response curve, co-treatment: AZD3965 100 nM | area under dose-response curve, co-treatment: DMSO vehicle | area under dose-response curve, co-treatment: GSK2194069 100 nM | area under dose-response curve, co-treatment: pictilisib 100 nM | cell viability, 1 nM [%] | cell viability, 10 nM [%] | cell viability, 100 nM [%] | cell viability, 1000 nM [%] | cell viability, 10000 nM [%]
HL-60 [17] | < 0.0301 | < 0.0301 | < 0.0301 | < 0.0301 | – | – | – | – | –
[2] | – | – | – | – | 47.2 | 40.6 | 42.5 | 78.8 | 4.58
[3] | – | – | – | – | 94.5 | 81.9 | 79.7 | 88.4 | 74.4
[4] | – | – | – | – | 95.8 | 98.4 | 93.6 | 90.6 | 96.4
[5] | – | – | – | – | 74.5 | 65.6 | 61.8 | 92 | 55.3
[6] | – | – | – | – | 73.7 | 58.7 | 48.6 | 71.6 | 5.69
[7] | – | – | – | – | 69.7 | 47.8 | 38.4 | 39.2 | 21.8
[8] | – | – | – | – | 89.3 | 47.4 | 52.9 | 70.1 | 51.8
[9] | – | – | – | – | 79.1 | 69 | 69.6 | 80.6 | 63
[10] | – | – | – | – | 97.6 | 86.7 | 77.1 | 95.1 | < 0
[11] | – | – | – | – | 75.1 | 50.9 | 53.1 | 59 | 24.4
[12] | – | – | – | – | 46.4 | 11.5 | 3.45 | 58.7 | 0.265
[13] | – | – | – | – | 99.3 | 88.2 | 77.1 | 96.8 | 55.5
[14] | – | – | – | – | 77.4 | 68.2 | 55.9 | 73.9 | < 0
[15] | – | – | – | – | 83.3 | 55.6 | 78.2 | 88.4 | 55.5
[16] | – | – | – | – | 78.2 | 48.1 | 25.1 | 49.6 | < 0
